{
  "source": "patent US20110224256A1",
  "about": "“T[…] THE TREATMENT OF PSYCHIATRIC DISORDERS” (priority 2008, published 2011)",
  "key": {"[1]": {"test_system": "dopamine receptors D1, D2 long, D4 and D5 mRNA", "test": "D1, D2 long, D4 and D5 receptor mRNA by Q-PCR after juvenile MPH exposure", "type": "in vivo, Sprague-Dawley rats", "conditions": "MPFCx, 25 days after cessation of MPH, P>0.1"}, "[2]": {"test_system": "Sprague-Dawley male rats", "test": "Place conditioning to 10 mg/kg cocaine at P60 after juvenile drug exposure", "type": "in vivo", "conditions": "juvenile exposure P20-P35: MPH 2 mg/kg, ±7-OHDPAT 0.3 mg/kg, or MPH 2 mg/kg + Naf 0.05 mg/kg; tested at P60; HCl", "protocol": "Juvenile Sprague-Dawley male rats were treated with MPH (2 mg/kg, i.p. twice daily), ±7-OHDPAT (0.3 mg/kg, i.p. twice daily), Naf (0.05, 0.5 and 5 mg/kg; i.p. twice daily) or VEH (i.p. twice daily) between the ages of P20 and P35 (Andersen et al., Nat. Neurosci., 5:13-14 (2002)). The MPH dose was selected on the basis of previous studies (see Andersen et al., Nat. Neurosci., 5:13-14 (2002); Bolanos et al., Biol. Psychiatry, 54:1317-1329 (2003); and Mague et al., Biol. Psychiatry, 57:120-125 (2005)), unpublished observations that we find similar behavioral effects if MPH is given i.p. or orally at this dose, and evidence that it approximates a clinically relevant dose in humans based on plasma levels (see Wargin et al., J. Pharmacol. Exp. Ther., 226:382-386 (1983); and Kuczenski, R. & Segal, D. S. J. Neurosci., 22:7264-7271 (2002)). Clinically therapeutic doses of MPH yield plasma levels between 8 and 40 ng/mL (Swanson et al., Behay. Brain Res., 130:73-78 (2002); Teicher et al., Ann. N. Y. Acad. Sci., 1071:313-323 (2006)), with 0.5 mg/kg i.p., achieving plasma levels of 36 ng/mL within 5 min in rats (Berridge et al., Biol. Psychiatry, 60:1111-1120 (2006)). Doses for juvenile exposure to ±7-OHDPAT are based on Neisewander et al., Neuropsychopharmacology, 29:1479-1487 (2004), and cortical microinjections of 10 µg/side were derived from Boulay et al. Prog. Neuropsychopharmacol. Biol. Psychiatry, 24:39-49 (2000). Naf doses below 1 mg/kg have negligible D2 receptor occupancy (Sautel et al., J. Pharmacol. Exp. Ther., 275:1239-1246 (1995)) and are behaviorally effective (Richtand et al., Brain Res., 867:239-242 (2000)). Subjects were weighed daily at 09.00 h and injected with their assigned drug; the second injection was administered 4 h later at 13.00 h. This regimen is designed to match the twice-daily dosing used by children, taking into account the higher metabolic rates of rats (Wargin et al., J. Pharmacol. Exp. Ther., 226:382-386 (1983)). After the second drug administration on P35, the rats received no further treatments until behavioral testing at P60.\nRats treated between P20 and P35 with either Naf (0, 0.05, 0.5 or 5.0 mg/kg; n=7-9), ±7-OHDPAT (0.3 mg/kg; n=9), MPH (2 mg/kg; n=9), or a combination of 2 mg/kg MPH and 0.05 mg/kg Naf (MPH/Naf; n=8) were tested at P60 for place conditioning to 10 mg/kg cocaine. According to standard laboratory methods (Andersen et al., Nat. Neurosci., 5:13-14 (2002); Carlezon, Methods Mol. Med., 84:243-249 (2003)), unbiased place conditioning chambers consisted of two large (24×18×33) side compartments separated by a small (12×18×33 cm) middle compartment. Screening was conducted for 30 min on Day 1. Rats were placed in the middle compartment and allowed to freely explore the apparatus. […] Two days of conditioning (with two sessions per day) occurred on Days 2 and 3 for 60 min (Andersen et al., Nat. Neurosci., 5:13-14 (2002); Carlezon, Methods Mol. Med., 84:243-249 (2003)). During the conditioning sessions, rats received a 1 mL/kg i.p. injection of VEH in the morning (09.00 h) and confined to one side. The rats were then returned to the home cage. Four hours later, rats received 10 mg/kg cocaine and confined to the other side. Sides differed in floor texture, wall colors and lighting, and assignments were counterbalanced. On Day 4, rats were permitted to freely explore the entire apparatus for 30 min in a drug-free state."}, "[3]": {"test_system": "BDNF", "test": "BDNF mRNA and protein in MPH-exposed subjects after cocaine challenge", "type": "in vivo, rats", "conditions": "in response to cocaine challenge, preliminary, data not shown", "from_the_text": "Changes in D3 expression and function may signal a sensitive period of development, when drug imprinting is likely to occur (Andersen, Trends Pharmacol. Sci., 26:237-243 (2005)). Drug-induced perturbations before the completion of dopamine receptor development may prevent these developmental rearrangements."}, "[4]": {"conditions": "0.5 mg/kg i.p., within 5 min, rats; cited from earlier work"}},
  "note": "Entries after “also recorded” stand apart in the source; their conditions may differ. Where a name gives a salt, the structure may show the parent alone.",
  "data": [
    {"compound": "COC(=O)C(c1ccccc1)C1CCCCN1", "note": "(stereo not drawn) [MPH, d,l-Methylphenidate HCl]", "values": [
      {"measurement": "changes in other dopamine receptor subtype mRNA (D1, D2 long, D4, D5)", "setting": "[1]", "value": "No other significant changes"},
      {"measurement": "place conditioning to 10 mg/kg cocaine associated environment (pre- vs. post-conditioning)", "setting": "[2]", "value": "Place aversion; also recorded: aversion to the cocaine-associated environment"},
      {"measurement": "BDNF mRNA", "setting": "[3]", "value": "reduced"},
      {"measurement": "BDNF protein levels", "setting": "[3]", "value": "modestly, but significantly, lower"},
      {"measurement": "plasma levels", "setting": "[4]", "value": 36, "unit": "ng/mL"}
    ]}
  ]
}
